In patent US20080234311A1, “IMMUNOASSAY FOR DETECTION AND QUANTIFICATION OF AMYLOID-beta PEPTIDES” (priority 2006, published 2008) one finds IC50 data, which are given here for 1 molecule.

Each structure is given as a SMILES string.

The assay deals with Aβ1-40 production in rat cortical neurons. Nature of the assay: Aβ1-40 level in conditioned medium of rat cortical neurons (rodent Aβ immunoassay). The assay is classed as cell-based. The note with it: rat cortical neurons of 7 days of culture, treated at various concentrations for 7 days (FIG. 2B); read-out: IC50 for reduction of Aβ1-40 level in conditioned medium. As to the method: Mouse monoclonal antibody specific for the N-terminal of mouse/rat Aβ was immobilized by incubation of 96-well polystyrene plate with 50 ul of the antibody at 4 ug/ml in each well in a coating buffer (0.1 M NaHCO3 pH 8.2) overnight at 4° C. The plates were washed thereafter each step for 3 times with 200 μl/well PBST (PBS with 0.5% Tween-20). The wells were then sequentially incubated with 50 μl/well test samples containing mouse/rat or human Aβ1-40 or Aβ1-42 overnight at 4° C. Primary rabbit antibodies specific for either Aβ1-40 or Aβ1-42 (BioSource International Inc., Camarillo, Calif.) were added to each well at 50 ul/well for a final concentration of 400 ng/ml, and incubated at room temperature. […] The color signal was measured at […] in a spectrophotometer. […] This indicates the specificity of the assay for rodent Aβ The assay detected both mouse/rat Aβ1-40 and Aβ1-42 at levels less than 15 ng/ml (FIG. 1C).
The amount released can be reduced by a γ-secretase inhibitor. […] The cortical neurons of 7 days of culture were treated with gamma-secretase inhibitor L-685,458 at various concentrations for 7 days and the Aβ1-40 level was measured in the conditioned medium. […]
The effect of nicotinic receptor ligands on Aβ production was analyzed by measurement of the Aβ1-40 level in the conditioned media of rat cortical cultures treated with α7 nAChR selective ligands for 7 days. […]

On to `CC(C)C[C@H](NC(=O)[C@H](Cc1ccccc1)C[C@@H](O)[C@H](Cc1ccccc1)NC(=O)OC(C)(C)C)C(=O)N[C@@H](Cc1ccccc1)C(N)=O` [L-685,458], for which the IC50 is 431 nM.

What is called IC50 is the concentration that inhibits the measured activity by half.
